# From US12560588B2, “High-efficiency screening method for RNA-targeting drugs using nanopores” (KOREA RESEARCH INSTITUTE OF BIOSCIENCE AND BIOTECHNOLOGY, priority 2020, dated 2026)
# Tests used:
# ARS = assay: 1D CPMG ligand-observed NMR; details: absence vs presence of ARS
# 3′L-iav-RNA = format: binding, influenza A virus
# 5′L-iav-RNA = format: binding, influenza A virus
# [1] = test system: adenine-sensing riboswitch (ARS); assay: α-hemolysin nanopore measurement of ARS with ligand; format: binding, Vibrio vulnificus; details: for dwell time relative to free ARS: type-II translocation event, individual compounds
# Method: RNAs were synthesized by Integrated DNA Technologies (Coralville, IA, USA). All RNAs were dialyzed against 10 mM potassium phosphate (pH 6.2) buffer for at least 12 hours. After heating RNAs at 95° C. for 5 minutes, it was cooled quickly in the ice and annealed. The nanopore experiment was performed at RNA concentration of 10 to 500 nm. α-hemolysin (α-HL) protein was purchased from List Biological Laboratories Inc. (CAMPBELL, CA, USA). 1,2-diphytanoylsn-glycero-3-phosphocholine(DPhPC) was purchased from Avanti Polar Lipids (Alabaster, Al, USA).
# Specifically, in the buffer containing 10 mM potassium phosphate (pH 6.2), 2 mM MgCl2 and 1M KCl, free ARS or ARS-adenine complex was added to the cis face of a lipid bilayer with a single α-HL nanopore. If the voltage of (+) 100 mV is applied on the nanopore, the free ARS or the ARS-adenine complex is driven by electrophoresis to block the ion current. The nanopore events of the free ARS and ARS-adenine complex were statistically analyzed (a to c in FIG. 2).
# The average I/I0 value of level 1 (III1) of the type-II event is 0.45, which corresponds to about 50% of level 2 (III2). After separating the types I and II nanopore events of the complex, each type of event was statistically analyzed. The type I and II events of the ARS-adenine complex is different in the average value and dwell time of I/I0 ((b) to (c) in FIG. 3).
# [2] = test system: PreQ1-sensing riboswitch (PreQ1 rs); assay: α-hemolysin nanopore measurement of PreQ1 rs with PreQ1; format: binding
# Method: The PreQ1 rs is synthesized by Integrated DNA Technologies (Coralville, IA, USA). The PreQ1 rs used in the test was designed by adding GG sequences to the 5′ end of the 34nt basic aptamer sequences for the ease of secondary verification (NMR analysis, etc.) of the riboswitch structural change by binding of the PreQ1 ligand. The PreQ1 rs RNAs were dialyzed against 10 mM potassium phosphate (pH 6.2) buffer for at least 12 hours. After heating RNAs at 95° C. for 5 minutes, it was cooled quickly in the ice and annealed. All nanopore tests were performed at 500 nM concentration.
# Specifically, in the buffer containing 10 mM potassium phosphate (pH 6.2) and 1M KCl, 500 nM of free PreQ1 rs was added to the cis face of a lipid bilayer with the α-HL nanopore. It was observed that the PreQ1 rs was driven by electrophoresis to block the ion current if the (+) voltage was applied on the nanopore.
# Since then, to confirm whether the interaction of ligands can be detected at a single molecule level, the PreQ1 rs-PreQ1 complex was added to the cis face of the lipid bilayer with the nanopore in the buffer containing 10 mm phosphate (pH 6.2) and 1M KCl. When the (+) voltage is applied to the nanopore, the ion current is blocked as the PreQ1 rs-PreQ1 complex enters the nanopore by electrophoresis. In the current blockade event of the PreQ1 rs-PreQ1 complex, both type A and type B events were observed, and active nanopore current traces were confirmed (FIG. 17, bottom panel).
# TPP riboswitch (TRS) = format: binding
# [3] = test system: adenine-sensing riboswitch (ARS); assay: 1D 1H NMR of ARS with adenine; details: high salt concentration (1M KCl)
molecule,measurement,setting,value
Oc1cc(O)c2c(c1)O[C@H](c1ccc(O)c(O)c1)[C@H](O)C2 [(−)-epicatechin],binding to ARS by 1D CPMG,ARS,non-binding
Nc1ncnc2c1ncn2[C@@H]1O[C@H](COP(=O)(O)OP(=O)(O)OP(=O)(O)O)[C@@H](O)[C@H]1O [ATP],binding to ARS by 1D CPMG,ARS,non-binding
"COc1cc2nc(N3CCNCC3)nc(N)c2cc1OC [DPQ, 6,7-dimethoxy-2-(1-piperazinyl)-4-quinazolinamine]",nanopore average dwell time,3′L-iav-RNA,9.52 ms
same,average nanopore dwell time,5′L-iav-RNA,1.14 ms
same,dwell time,5′L-iav-RNA,1.47 ms
"O=C(/C=C/c1ccc(O)c(O)c1)O[C@@H]1[C@H](O)C[C@@](O)(C(=O)O)C[C@H]1OC(=O)/C=C/c1ccc(O)c(O)c1 [NC1, 3,4-dicaffeoylquinic acid]",nanopore event type observed,[1]; ARS with ligand,types II translocation event
same,dwell time relative to free ARS,[1],more than twice
same,binding to ARS by 1D CPMG,ARS,definite binding
"O=C(/C=C/c1ccc(O)c(O)c1)O[C@H]1[C@H](O)C[C@](O)(C(=O)O)C[C@H]1OC(=O)/C=C/c1ccc(O)c(O)c1 [NC2, 4,5-dicaffeoylquinic acid]",nanopore event type observed,[1]; ARS with ligand,types II translocation event
same,dwell time relative to free ARS,[1],more than twice
same,binding to ARS by 1D CPMG,ARS,definite binding
"O=C(O)[C@H]1O[C@@H](Oc2cc(O)c3c(=O)cc(-c4ccc(O)c(O)c4)oc3c2)[C@H](O)[C@@H](O)[C@@H]1O [NC4, luteolin-7-glucuronide]",nanopore event type observed,[1]; ARS with ligand,types II translocation event
same,dwell time relative to free ARS,[1],more than twice
same,binding to ARS by 1D CPMG,ARS,definite binding
"NCC1C=Nc2nc(N)[nH]c(=O)c21 (stereo not shown) [PreQ1, 7-aminomethyl-7-deazaguanine]",type A event rate,[2]; PreQ1 rs-PreQ1 complex,26.5%
same,type B event rate,[2]; PreQ1 rs-PreQ1 complex,73.5%
same,type B event rate increase versus free PreQ1 rs,[2]; ligand-bound state,about 1.5 times
"Cc1ncc(C[n+]2csc(CCO[P@](=O)(O)OP(=O)(O)O)c2C)c(N)n1 [TPP, thiamine pyrophosphate]",average dwell time,TPP riboswitch (TRS),0.22 ms
same,dwell time of type-I event,TPP riboswitch (TRS),0.21 ms
same,dwell time of type-II event,TPP riboswitch (TRS),4.37 ms
same,type-II dwell time increase versus free TRS,TPP riboswitch (TRS),1.3 times
same,type-II event rate,TPP riboswitch (TRS),14.3%
same,type-II event rate increase versus free TRS,TPP riboswitch (TRS),1.6 times
Nc1ncnc2nc[nH]c12 [adenine],binding to ARS by imino proton peaks,[3],bound
same,nanopore event type observed,[1]; ARS with ligand,mixture of the type I and type-II events
same,average dwell time (td),"[1]; ARS with ligand, all events, +100 mV, 1M KCl",0.63 ms
same,dwell time of the type-I event (tI),[1]; ARS-adenine complex,0.28 ms
same,dwell time of the type-II event (tII),[1]; ARS-adenine complex,2.14 ms
same,nanopore dwell time of the type-II event (tII),[1]; adenine added to MIX-3,2.52 ms
same,type-II dwell time relative to free ARS,[1]; adenine added to MIX-3,up to 6.6 times
same,type-II dwell time relative to the type-I event,[1]; adenine-bound ARS,7.64 times
NCCCS(=O)(=O)O [tramiprosate],binding to ARS by 1D CPMG,ARS,non-binding
Neomycin,average nanopore dwell time,5′L-iav-RNA,3.48 ms
same,dwell time increase versus free viral RNA,5′L-iav-RNA,about 8.1 times
